According to ChEMBL document CHEMBL1201862, “PubChem BioAssay data set” (2004):
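Briefly, cells in 96-well plates were exposed to five compound concentrations for 48 h, and endpoints were estimated by linear interpolation. GI50: concentration for 50% inhibition of growth.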 The source made the active and inactive calls. Cut-off read from the data, not from the text of the source: active = GI50 up to about 1.1 µM and inactive = higher.

Key:
Test in all cases: NCI anticancer screen, dose series, 48 h
[1] = tested on: SF-295
[2] = tested on: A549
[3] = tested on: SK-OV-3
[4] = tested on: SNB-19
[5] = tested on: SK-MEL-28
[6] = tested on: RXF 393
[7] = tested on: SK-MEL-5
[8] = tested on: M14
[9] = tested on: SW-620
[10] = tested on: HOP-92
[11] = tested on: UACC-257
[12] = tested on: ACHN
[13] = tested on: UACC-62
[14] = tested on: KM12
[15] = tested on: CCRF-CEM
[16] = tested on: HL-60
[17] = tested on: OVCAR-5
[18] = tested on: NCI/ADR-RES
[19] = tested on: K562
[20] = tested on: SF-268

Measured: GI50

COc1ccc(C2C(C(=O)O)=C(CO)Oc3cc4c(cc32)OCO4)cc1 (centres undefined)
inactive: [1] > 100 µM | [2] > 100 µM | [3] > 100 µM | [4] > 100 µM | [5] > 100 µM | [6] > 100 µM | [7] > 100 µM | [8] > 100 µM | [9] > 100 µM | [10] > 100 µM | [11] > 100 µM | [12] > 100 µM | [13] > 100 µM

O=c1[nH]nc(NCc2ccccc2)c2nnn(Cc3ccccc3)c12
inactive: [14] > 100 µM | [15] > 100 µM | [1] > 100 µM | [2] > 100 µM | [4] > 100 µM | [5] > 100 µM | [16] > 100 µM | [7] > 100 µM | [8] > 100 µM | [17] > 100 µM | [18] > 100 µM | [10] > 100 µM | [19] > 100 µM | [11] > 100 µM | [12] > 100 µM

N=S(=O)(c1ccccc1)c1ccccc1
inactive: [14] > 100 µM | [15] 24.2 µM | [1] > 100 µM | [2] > 100 µM | [3] > 100 µM | [4] > 100 µM | [5] > 100 µM | [16] > 100 µM | [7] > 100 µM | [8] > 100 µM | [17] > 100 µM | [9] > 100 µM | [20] > 100 µM | [19] 28.2 µM | [11] > 100 µM | [12] > 100 µM | [13] > 100 µM

NC(CCOCCP(=O)(O)O)C(=O)O (centres undefined)
inactive: [14] > 100 µM | [15] > 100 µM | [1] > 100 µM | [2] > 100 µM | [3] > 100 µM | [4] > 100 µM | [5] > 100 µM | [16] > 100 µM | [6] > 100 µM | [7] > 100 µM | [8] > 100 µM | [17] > 100 µM | [9] > 100 µM | [18] > 100 µM | [10] > 100 µM | [20] > 100 µM | [19] > 100 µM | [11] > 100 µM | [12] > 100 µM | [13] 56.5 µM

Nc1nc(=O)[nH][nH]1
inactive: [14] > 100 µM | [15] > 100 µM | [1] > 100 µM | [2] > 100 µM | [3] > 100 µM | [4] > 100 µM | [5] > 100 µM | [16] > 100 µM | [6] > 100 µM | [7] > 100 µM | [17] > 100 µM | [9] > 100 µM | [18] > 100 µM | [10] > 100 µM | [20] > 100 µM | [19] > 100 µM | [11] > 100 µM | [13] > 100 µM

Cc1n[nH]c(N)c1C(N)=O
inactive: [14] > 100 µM | [15] > 100 µM | [1] > 100 µM | [2] > 100 µM | [3] > 100 µM | [4] > 100 µM | [5] > 100 µM | [16] > 100 µM | [6] 21.5 µM | [7] > 100 µM | [8] > 100 µM | [17] > 100 µM | [9] > 100 µM | [20] > 100 µM | [19] > 100 µM | [11] > 100 µM | [12] > 100 µM | [13] > 100 µM

O=C1NC(=O)C2(CCc3ccc(N(CCCl)CCCl)cc32)N1 (centres undefined)
inactive: [14] 29.3 µM | [15] 1.41 µM | [1] 7.5 µM | [2] 8.36 µM | [3] 16.1 µM | [4] 3.37 µM | [5] 17.5 µM | [16] 1.65 µM | [6] 6.7 µM | [7] 13.5 µM | [17] 13.2 µM | [9] 18.2 µM | [18] 9.77 µM | [10] 13.5 µM | [20] 7.36 µM | [19] 19.8 µM | [11] 16.4 µM | [13] 4.33 µM

C[Si](C)(OCCS(=O)(=O)O)C1(Cc2cccc3ccccc23)S(=O)(=O)OCCOS1(=O)=O
inactive: [14] 14.4 µM | [15] 18.3 µM | [1] 20.2 µM | [2] 23 µM | [3] 15.6 µM | [4] 19.1 µM | [5] 17.1 µM | [16] 8.26 µM | [7] 17.3 µM | [8] 17.7 µM | [17] 18.7 µM | [9] 16.3 µM | [18] 33.7 µM | [10] 11.2 µM | [20] 23.2 µM | [19] 26.4 µM | [11] 28.1 µM | [12] 18.1 µM | [13] 17.9 µM

OC[C@H]1NC[C@@H](O)[C@@H](O)[C@H]1O
inactive: [14] > 100 µM | [15] > 100 µM | [1] > 100 µM | [3] > 100 µM | [4] > 100 µM | [5] > 10 µM | [6] > 100 µM | [7] > 100 µM | [8] > 100 µM | [17] > 100 µM | [9] > 100 µM | [18] > 100 µM | [10] > 100 µM | [19] > 100 µM | [11] > 100 µM | [13] > 100 µM
